The source made the active and inactive calls. Cut-off read from the data, not from the text of the source: actives have a measured IC50 and inactives only a lower limit.
target: Envelope glycoprotein gp160 (Human immunodeficiency virus 1, UniProt Q6QLK5); assay: inhibitors of HIV fusion peptide binding, primary screen, biochemical, uHTS, fluorescence dequenching (AID 1986)
Sequence (Q6QLK5 whole entry, the tested form may be a part): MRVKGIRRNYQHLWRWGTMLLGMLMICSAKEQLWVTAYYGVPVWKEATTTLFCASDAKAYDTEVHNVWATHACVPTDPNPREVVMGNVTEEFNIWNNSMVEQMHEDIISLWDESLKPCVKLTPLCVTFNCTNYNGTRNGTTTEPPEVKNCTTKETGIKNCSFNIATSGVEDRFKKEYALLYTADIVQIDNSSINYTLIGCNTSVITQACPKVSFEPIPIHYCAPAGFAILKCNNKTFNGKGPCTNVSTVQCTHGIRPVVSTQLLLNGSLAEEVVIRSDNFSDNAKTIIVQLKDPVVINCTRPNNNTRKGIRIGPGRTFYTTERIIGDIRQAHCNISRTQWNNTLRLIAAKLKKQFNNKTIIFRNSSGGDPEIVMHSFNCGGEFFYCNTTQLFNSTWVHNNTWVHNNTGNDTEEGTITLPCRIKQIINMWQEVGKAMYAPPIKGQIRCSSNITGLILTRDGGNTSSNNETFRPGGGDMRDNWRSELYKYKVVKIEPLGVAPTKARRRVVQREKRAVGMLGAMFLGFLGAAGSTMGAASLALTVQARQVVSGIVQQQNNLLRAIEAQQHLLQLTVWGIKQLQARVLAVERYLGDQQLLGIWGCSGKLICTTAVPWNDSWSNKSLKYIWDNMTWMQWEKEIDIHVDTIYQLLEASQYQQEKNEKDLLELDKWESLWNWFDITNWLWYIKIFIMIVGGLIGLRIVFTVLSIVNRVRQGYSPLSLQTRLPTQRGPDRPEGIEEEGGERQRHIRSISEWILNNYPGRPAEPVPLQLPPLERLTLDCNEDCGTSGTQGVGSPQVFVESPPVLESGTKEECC

SMILES	IC50
C=CC#CC[N+]1(CC#Cc2ccccc2)CCOCC1	22.5 µM (active)
Cc1ccc(-c2nc(SCC(=O)Nc3ccccc3OC(F)F)c3c(C)c(C(=O)O)sc3n2)cc1	15.1 µM (active)
O=C(O)c1cccc(N/N=C/c2cc(Br)cc(Br)c2O)c1	17.1 µM (active)
